Data from US7514432B2, “Compounds and methods of treating cell proliferative diseases, retinopathies and arthritis” (Exonhit Therapeutics SA, priority 2003, dated 2009).

Columns and labels:
HCT116 = assay: Cell viability assay (MTT), HCT116; type: cell-based, human; conditions: 1% DMSO
Outline: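 Cells seeded 24 h before treatment with 0–200 μM compound (11 concentrations, 1% DMSO final) in 10% or 0.5% FBS medium; exposure 16 h, 3 or 6 days, fed every 3 days in 6-day runs. MTT 0.5 mg/ml read at 550 nm; IC50 from dose-response curves, mean±SEM.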

HeLa = assay: Cell viability assay (MTT), HeLa; type: cell-based; conditions: Homo sapiens, 72 h, 10% FBS, 3-day treatment, 1% DMSO
Description: Table 14: 3-day cell viability assay (MTT) in the presence of 10% Fetal Bovine Serum and 1% DMSO, in DLD1, HCT116, MDA-MB-231, MCF7 and HeLa cells. 7.5 10^3 to 1.5 10^4 cells were seeded in 48-well plates in growth medium containing 10% FBS, with or without various concentrations of test compounds. Data were analyzed and IC50s were calculated from dose-response curves using GraphPad Prism. Results summarized in the tables are mean±SEM of 1 to 7 independent experiments.
In order to determine a compound's effect on cell viability, microculture tetrazolium assays (MTT) were performed as described by Carmichael et al. (1996) with modifications. Four human tumoral cell lines, namely HCT116 colon adenocarcinoma, H460 lung carcinoma, MCF-7 and MDA-MB-231 breast carcinoma cell lines, DLD1 colorectal adenocarcinoma, HeLa adenocarcinoma, HepG2 hepatocellular carcinoma. 3 immortalized but non tumorigenic cell lines, namely NIH3T3 mouse fibroblasts (American Type Culture Collection) and primary hepatocytes (Biopredic international), cultured according to their recommendations together with Human Microvasculature Endothelial Cell line HMEC1 (National Center for Infectious Diseases). Briefly, cells were seeded in 48-well plates 24 hours before drug addition. Cells were treated with 0 to 200 μM (11 concentrations) of compound solubilized in DMSO, adjusting the final concentration of DMSO to 1% in the well. 16 hours, and three or six days after treatment, 0.5 mg/ml MTT (Sigma) was added to the medium and cells were incubated for 1-5 hours at 37° C. before solubilization of formazan crystals in 100% DMSO. Absorbance was measured using a spectrophotometer at a wavelength of 550 nm. Data was analyzed using the GraphPad Prism software (GraphPad Software, Inc.), and IC50 (dose leading to 50% cell death) was calculated from the dose-response curves.

MDA-MB-231 = assay: Boyden chamber migration assay, MDA-MB-231; type: cell-based, human; conditions: Homo sapiens, FBS as chemoattractant
Description: FIG. 4: Migration assays. (A) Wound healing assay in REF cells. 7.6 10^4 cells were plated on coverslips 48 hours before the experiment. The cells were pre-treated for 30 min. with the compounds, and then a scrape was done using a pipette tip. The scraped coverslips in treatment medium were put under a thermostated microscope coupled to a video camera. Movies were analyzed as described in material and methods, and velocity and total distance covered by the cells were evaluated. Bar graphs represent the mean±SEM of 2 to 4 experiments. (B) Boyden chamber migration assay in HMEC1, NIH3T3 and MDA-MB-231 cells. 5 10^4 to 7.5 10^4 Cells, resuspended in culture medium with or without FBS and with different compound concentrations, were seeded in the upper Boyden blind well on top of 8 μm pore-sized filters. The ability of the cells to migrate through the filter was assayed in the absence or presence of FBS in the lower Boyden chamber. After 16 hours incubation, the medium was removed and replaced with calcein-AM containing medium. After labeling, cells were washed with HBSS and fluorescence was read in a fluorescence plate reader. Fluorescence values were normalized against the fluorescence obtained for the 1% DMSO control. The data plotted are the means±SEM of 2 to 4 independent experiments.
An essential characteristic of malignant cells is their ability to migrate, invade host tissues and to produce metastases. In order to evaluate the capacity of one compound to affect the ability of tumoral cells to migrate, migration assays were performed using highly invasive tumoral cells MDA-MB-231, endothelial cells HMEC1 or fibroblastic cells NIH3T3. This assay was performed using Falcon HTS Fluoroblock inserts. Culture medium containing Fetal Bovine Serum (FBS; which is used as a chemoattractant) was added to the plate wells and 2 10^4 to 7.5 10^4 cells resuspended in medium without FBS and with 0.1% BSA were added to each insert well. The compound of interest was added to the medium in both the upper and the lower chambers. Plates were incubated for 16 hours at 37° C. Following incubation, the medium was removed from the upper chamber and the entire insert plate was transferred to a second 24-well plate containing 4 μg/ml Calcein-AM™ in medium containing 0.1% BSA. The plates were incubated for one hour at 37° C., rinsed with Hanks Buffered Saline (HBSS). Fluorescence data were collected using Fluoroskan Ascent FL fluorescence plate reader at an excitation wavelength (Ex) of 485 nm and emission wavelength (Em) of 517 nm. Only those labelled cells that passed through the Matrigel layer and the membrane were detected. Data were analyzed using the GraphPad Prism software and IM50s (dose at which 50% inhibition of cell migration is observed) were calculated.

[1] = Screening in vivo rising and repeated-dose toxicity study in rats; conditions: for body weight: at 300 mg/kg/day p.o.; for biological changes (hematology and blood biochemistry) / clinical signs / death during the study / tolerability: p.o. 10, 50, 300 mg/kg per day, 3 days each
Description: Screening in vivo rising and repeated-dose toxicity study in rats was performed on 3 rats per compound with the following schedule: • a. day 1 to day 3: 10 mg/kg p.o. per day, • b. day 4 to day 6: 50 mg/kg p.o. per day, • c. day 7 to day 9: 300 mg/kg p.o. per day.
Clinical signs, bodyweight, food consumption, and blood parameters were followed.

[2] = 10% FBS, 6-day treatment, trihydrochloride
[3] = Homo sapiens, HCT-116, 16 h, 10% FBS, 16-hours treatment
[4] = Homo sapiens, HCT-116, 72 h, 10% FBS, 3-day treatment
[5] = Homo sapiens, HCT-116, 144 h, 0.5% FBS, 6-day treatment
[6] = Homo sapiens, HCT-116, 144 h, 10% FBS, 6-day treatment

| Structure (SMILES) | IC50 (HCT116; [2]) [µM] | IC50 (HCT116; [3]) [µM] | IC50 (HCT116; [4]) [µM] | IC50 (HCT116; [5]) [µM] | IC50 (HCT116; [6]) [µM] | IC50 (HeLa) [µM] | IC50 (MDA-MB-231; MDA-MB-231, 16 h) [µM] | body weight [1] | biological changes (hematology and blood biochemistry) [1] | clinical signs [1] | death during the study [1] | tolerability [1] | IC50 (HCT116; 10% FBS, 6-day treatment, dihydrochloride) [µM] | IC50 (MDA-MB-231; MDA-MB-231, 16 hours) [µM] |
| --- | --- | --- | --- | --- | --- | --- | --- | --- | --- | --- | --- | --- | --- | --- |
| CN1CCN(Cc2cc(=O)c(OCCCCCSc3ccnc4cc(C(F)(F)F)ccc34)co2)CC1.Cl.Cl.Cl [EHT 9241, 5-(5-(7-(Trifluoromethyl)quinolin-4-ylthio)pentyloxy)-2-((4-methylpiperazin-1-yl)methyl)-4H-pyran-4-one trihydrochloride] | 4 | 31.3 | 5.7 | 6.2 | < 4 | 5.7 | 2.7 ± 1 | mean body weight loss | Some limited biological changes | Minimal clinical signs | No death occurred | quite well tolerated up to 300 mg/kg/day | – | – |
| Cl.Cl.Cl.O=c1cc(CN2CCNCC2)occ1OCCCCCSc1ccnc2cc(C(F)(F)F)ccc12 [EHT 8560, 5-(5-(7-(Trifluoromethyl)quinolin-4-ylthio)pentyloxy)-2-((piperazin-1-yl)methyl)-4H-pyran-4-one trihydrochloride] | 3.8 | – | 4 | 4.6 | < 4 | 4.4 | 4.5 ± 2.4 | mean body weight loss | Some limited biological changes | Minimal clinical signs | No death occurred | quite well tolerated up to 300 mg/kg/day | – | – |
| Cl.Cl.O=c1cc(CN2CCOCC2)occ1OCCCCCSc1ccnc2cc(C(F)(F)F)ccc12 [EHT 1864, 5-(5-(7-(Trifluoromethyl)quinolin-4-ylthio)pentyloxy)-2-(morpholinomethyl)-4H-pyran-4-one dihydrochloride] | – | 37 | 6.1 | 6.6 | < 4 | 23.3 | – | mean body weight loss | Some limited biological changes | Minimal clinical signs | No death occurred | quite well tolerated up to 300 mg/kg/day | 2.7 | 5.1 ± 1.9 |
